Experimental data from ChEMBL document CHEMBL1201862, “PubChem BioAssay data set” (2004).
The source made the active and inactive calls.

Columns and labels:
NADPH oxidase 1 = biological target: T1, NADPH oxidase 1 (Homo sapiens, UniProt Q9Y5S8); format: functional, cell-based;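 note: Cell-based assay with luminescence read-out, IC50 derived from inhibitor dose-response curves; intracellular ROS from endogenous NOX1 in intact HT29 colon cancer cells; potency of inhibitors that lower the ROS luminescence signal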
T1 sequence (Q9Y5S8 whole entry): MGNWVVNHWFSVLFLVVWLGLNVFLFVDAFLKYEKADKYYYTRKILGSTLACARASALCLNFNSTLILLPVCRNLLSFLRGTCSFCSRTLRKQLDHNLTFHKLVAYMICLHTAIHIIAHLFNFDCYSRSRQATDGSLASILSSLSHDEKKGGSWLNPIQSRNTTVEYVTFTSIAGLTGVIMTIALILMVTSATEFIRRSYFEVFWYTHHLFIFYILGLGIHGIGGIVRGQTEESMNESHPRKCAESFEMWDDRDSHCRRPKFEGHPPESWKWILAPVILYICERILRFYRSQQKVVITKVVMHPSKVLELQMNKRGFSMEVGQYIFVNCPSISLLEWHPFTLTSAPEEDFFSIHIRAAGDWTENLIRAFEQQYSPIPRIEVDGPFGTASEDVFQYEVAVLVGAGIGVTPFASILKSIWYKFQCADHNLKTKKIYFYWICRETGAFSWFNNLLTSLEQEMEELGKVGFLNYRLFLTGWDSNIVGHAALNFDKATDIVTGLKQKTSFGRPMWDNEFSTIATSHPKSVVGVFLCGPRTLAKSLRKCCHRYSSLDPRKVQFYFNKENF

[1] = Luminescence Cell-Based Dose Response to Identify Activators of 5'UTR Stem-Loop Driven Prion Protein mRNA Translation in H4-C Neuroglioblastoma Cells. [Related pubchem assays: 1829 (Project Summary), 1814 (Primary HTS)]; format: functional
[2] = Luminescence Cell-Based Dose Confirmation HTS to Identify Activators of 5'UTR Stem-Loop Driven Alpha-Synuclein mRNA Translation in H4 Neuroglioblastoma Cells. [Related pubchem assays: 1829 (Project Summary), 1814 (Primary HTS)]; format: functional
[3] = Luminescence Cell-Based Dose Response HTS to Identify Activators of Luciferase Translation or Activity in H4 […] Cells. [Related pubchem assays: 1829 (Project Summary), 1814 (Primary HTS)]; format: functional
H4 = experiment: Luminescence Cell-Based Dose Response HTS to Identify Activators of 5'UTR Stem-Loop Driven Prion Protein mRNA Translation in H4 Neuroglioblastoma Cells. [Related pubchem assays: 1829 (Project Summary), 1814 (Primary HTS)]; format: functional; settings: Homo sapiens
[4] = Luminescence Cell-Based Dose Response to Identify Activators of Luciferase Translation or Activity in H4-C Neuroglioblastoma Cells. [Related pubchem assays: 1829 (Project Summary), 1814 (Primary HTS)]; format: functional
[5] = Luminescence Cell-Based Dose Confirmation to Identify Activators of 5'UTR Stem-Loop Driven Alpha-Synuclein mRNA Translation in H4 Neuroglioblastoma Cells. [Related pubchem assays: 1829 (Project Summary), 1814 (Primary HTS)]; format: functional
Kallikrein-7 = Kallikrein-7 (Homo sapiens, UniProt P49862); experiment: Fluorescence Intensity-based biochemical primary high throughput dose response assay to identify activators of kallikrein-7 (K7) zymogen.
[6] = inhibitors of Vif binding to APOBEC3G peptide, primary screen, biochemical, TR-FRET, GST-Vif 1-94, biotin-A3G peptide, dose response retest (AID 1117319); format: functional;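 note: TR-FRET signal of purified GST-Vif binding a biotinylated A3G peptide; inhibitors lower the FRET signal by blocking Vif and A3G binding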
[7] = P. falciparum late gametocyte killing, dose response, luminescence (AID 1117278); format: functional, cell-based;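 note: gametocytes exposed to compound for 24 hours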
[8] = Jurkat T cell cytotoxicity, dose response, cytotoxicity control for P. falciparum gametocyte viability project, luminescence (AID 1117277); format: functional, cell-based;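 note: potency reflects loss of cellular ATP meaning fewer viable cells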
[9] = inhibitors of firefly luciferase expression or activity, dose response, H4 neuroglioma cells, luminescence (AID 1990); format: functional, cell-based
[10] = Luminescence Cell-Based Dose Response HTS to Identify Inhibitors of 5'UTR Stem-Loop Driven Prion Protein mRNA Translation in H4 Neuroglioblastoma Cells. [Related pubchem assays: 1827 (Project Summary), 1813 (Primary HTS)]; format: functional
[11] = inhibitors of SNCA 5'UTR-driven reporter translation, confirmation, H4 neuroglioma cells, luminescence (AID 1988); format: functional, cell-based
Cytochrome P450 2C19 = Cytochrome P450 2C19 (Homo sapiens, UniProt P33261); experiment: Cytochrome panel assay with activity outcomes. Panel member name: p450-cyp2c19 Compounds with AC50 equal or less than 10 uM are considered active; format: functional; settings: read-out: AC50
[12] = biological target: T2, Replicative DNA helicase DnaB (Mycobacterium tuberculosis, UniProt P9WMR3); experiment: DnaB intein splicing inhibitors, dose response, biochemical, cell-free fluorescence (AID 449749); format: functional
T2 sequence (P9WMR3 whole entry): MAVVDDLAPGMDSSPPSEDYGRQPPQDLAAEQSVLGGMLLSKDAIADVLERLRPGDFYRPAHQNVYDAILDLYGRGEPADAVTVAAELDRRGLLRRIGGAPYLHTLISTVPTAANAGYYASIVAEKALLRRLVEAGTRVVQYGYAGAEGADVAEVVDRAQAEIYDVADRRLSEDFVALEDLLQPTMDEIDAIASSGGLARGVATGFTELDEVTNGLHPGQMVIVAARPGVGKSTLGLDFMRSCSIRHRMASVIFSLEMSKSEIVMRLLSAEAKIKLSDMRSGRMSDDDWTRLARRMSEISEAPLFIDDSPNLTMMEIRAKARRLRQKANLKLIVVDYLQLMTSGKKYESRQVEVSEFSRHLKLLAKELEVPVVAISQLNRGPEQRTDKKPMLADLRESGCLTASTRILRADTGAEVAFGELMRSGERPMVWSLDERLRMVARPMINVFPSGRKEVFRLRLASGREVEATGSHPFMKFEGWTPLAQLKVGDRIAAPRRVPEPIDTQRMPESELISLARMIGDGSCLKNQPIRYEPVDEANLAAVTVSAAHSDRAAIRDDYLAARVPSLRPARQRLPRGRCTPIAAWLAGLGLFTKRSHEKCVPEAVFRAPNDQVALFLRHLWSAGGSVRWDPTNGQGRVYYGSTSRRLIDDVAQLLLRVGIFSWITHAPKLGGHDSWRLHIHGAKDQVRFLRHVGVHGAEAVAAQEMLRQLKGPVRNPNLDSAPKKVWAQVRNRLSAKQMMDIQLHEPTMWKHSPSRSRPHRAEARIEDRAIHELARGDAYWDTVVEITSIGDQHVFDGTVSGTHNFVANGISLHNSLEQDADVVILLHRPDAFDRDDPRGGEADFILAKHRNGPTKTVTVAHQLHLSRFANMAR

Protein RecA = biological target: T3, Protein RecA (Mycobacterium tuberculosis, UniProt P9WHJ3); experiment: Fluorescence Cell-Free Homogeneous Dose Retest to Identify Inhibitors of RecA-Intein Splicing Activity. [Related pubchem assays (depositor defined):AID2097, AID2223, AID489010, AID492950]; format: functional
T3 sequence (P9WHJ3 whole entry): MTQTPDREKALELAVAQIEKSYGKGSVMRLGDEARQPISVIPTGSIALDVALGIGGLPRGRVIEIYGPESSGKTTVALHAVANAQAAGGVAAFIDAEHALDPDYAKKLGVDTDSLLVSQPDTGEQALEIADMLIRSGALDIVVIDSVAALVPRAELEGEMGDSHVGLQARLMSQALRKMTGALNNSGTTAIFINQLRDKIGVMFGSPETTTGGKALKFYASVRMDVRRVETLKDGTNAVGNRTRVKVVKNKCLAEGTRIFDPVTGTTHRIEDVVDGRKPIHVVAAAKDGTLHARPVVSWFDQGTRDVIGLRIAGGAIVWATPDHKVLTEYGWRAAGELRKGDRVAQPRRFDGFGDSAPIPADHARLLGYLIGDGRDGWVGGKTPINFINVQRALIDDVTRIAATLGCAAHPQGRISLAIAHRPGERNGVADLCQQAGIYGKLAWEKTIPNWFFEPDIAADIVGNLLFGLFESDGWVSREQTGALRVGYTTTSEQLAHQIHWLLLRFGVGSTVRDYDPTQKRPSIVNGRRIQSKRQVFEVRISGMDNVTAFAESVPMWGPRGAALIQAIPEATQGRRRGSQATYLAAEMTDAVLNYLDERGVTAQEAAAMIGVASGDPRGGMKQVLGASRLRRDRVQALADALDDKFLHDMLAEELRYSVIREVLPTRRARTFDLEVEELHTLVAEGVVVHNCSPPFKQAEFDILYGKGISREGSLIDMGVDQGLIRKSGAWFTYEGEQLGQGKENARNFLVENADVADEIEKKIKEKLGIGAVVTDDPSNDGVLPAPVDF

[13] = P. falciparum 3D7-ScDHODH growth inhibitors, dose response, SYBR Green, dry powder samples (AID 1159570); format: functional, cell-based;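 note: parasite growth measured after 72 hours of compound exposure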
[14] = P. falciparum Dd2 growth inhibitors, dose response, SYBR Green, cherry-picked samples (AID 1159567); format: functional, cell-based
[15] = P. falciparum Dd2 growth inhibitors, dose response, SYBR Green, dry powder samples (AID 1159566); format: functional, cell-based;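 note: potency for growth inhibition with lower SYBR green DNA signal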
[16] = P. falciparum ATP4 D1247Y mutant growth inhibitors, dose response, NITD609-resistant line, SYBR Green, dry powder (AID 1159571); format: functional, cell-based;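 note: parasites synchronized at ring stage by sorbitol before testing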
[17] = HEp-2 cell cytotoxicity, dose response, cytotoxicity control for RSV inhibitor project, HTS (AID 2410); format: functional; settings: human respiratory syncytial virus
[18] = biological target: Peroxisome proliferator-activated receptor gamma/Nuclear receptor coactivator 2 (Homo sapiens, UniProt P37231); format: functional;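 note: agonist potency for raising coactivator recruitment to the receptor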
[19] = biological target: Peroxisome proliferator-activated receptor gamma/Nuclear receptor coactivator 1 (Homo sapiens, UniProt P37231); format: functional;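 note: agonist potency as compounds enhance coactivator SRC-1 recruitment to PPARgamma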
[20] = biological target: Peroxisome proliferator-activated receptor gamma/Nuclear receptor coactivator 3 (Homo sapiens, UniProt P37231); format: functional;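 note: agonist potency for raising coactivator recruitment to the receptor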
Leucine aminopeptidase = biological target: T4, Leucine aminopeptidase (Plasmodium falciparum 3D7, UniProt Q8IL11); experiment: P. falciparum M17LAP inhibitors, primary screen, biochemical, fluorogenic H-Leu-NHMec substrate, 1536-well (AID 1619); format: functional
T4 sequence (Q8IL11 whole entry): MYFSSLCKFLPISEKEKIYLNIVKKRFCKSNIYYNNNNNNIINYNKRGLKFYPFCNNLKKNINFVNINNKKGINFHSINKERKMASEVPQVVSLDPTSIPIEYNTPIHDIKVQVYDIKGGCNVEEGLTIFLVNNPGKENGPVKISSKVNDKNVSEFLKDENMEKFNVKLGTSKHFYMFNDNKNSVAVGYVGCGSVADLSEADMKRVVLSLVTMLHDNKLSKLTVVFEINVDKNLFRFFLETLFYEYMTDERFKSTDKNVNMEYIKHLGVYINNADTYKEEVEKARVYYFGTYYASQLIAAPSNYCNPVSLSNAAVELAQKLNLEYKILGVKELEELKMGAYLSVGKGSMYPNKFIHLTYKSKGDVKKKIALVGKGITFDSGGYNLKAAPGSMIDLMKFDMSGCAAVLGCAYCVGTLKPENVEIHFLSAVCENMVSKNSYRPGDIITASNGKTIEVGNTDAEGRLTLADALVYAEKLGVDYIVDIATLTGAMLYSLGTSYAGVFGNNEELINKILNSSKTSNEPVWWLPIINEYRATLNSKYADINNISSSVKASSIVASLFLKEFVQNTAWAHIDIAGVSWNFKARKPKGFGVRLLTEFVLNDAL

Sequence of Peroxisome proliferator-activated receptor gamma/Nuclear receptor coactivator 2 (P37231 whole entry): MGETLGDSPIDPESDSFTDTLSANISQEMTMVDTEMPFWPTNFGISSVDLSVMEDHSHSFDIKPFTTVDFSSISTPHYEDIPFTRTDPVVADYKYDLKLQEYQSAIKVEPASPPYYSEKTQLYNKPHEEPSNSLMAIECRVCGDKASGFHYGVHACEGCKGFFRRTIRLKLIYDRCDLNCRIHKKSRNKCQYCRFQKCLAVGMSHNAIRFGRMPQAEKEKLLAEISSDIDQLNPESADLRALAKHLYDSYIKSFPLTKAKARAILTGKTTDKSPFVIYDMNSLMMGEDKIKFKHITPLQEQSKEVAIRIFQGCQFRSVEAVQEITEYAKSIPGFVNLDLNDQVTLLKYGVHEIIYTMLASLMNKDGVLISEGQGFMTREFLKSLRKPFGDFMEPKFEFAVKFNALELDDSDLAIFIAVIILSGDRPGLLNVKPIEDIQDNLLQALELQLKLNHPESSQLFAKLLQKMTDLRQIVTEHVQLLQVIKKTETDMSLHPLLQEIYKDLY
Sequence of Peroxisome proliferator-activated receptor gamma/Nuclear receptor coactivator 2 (Q15596 whole entry, further chain): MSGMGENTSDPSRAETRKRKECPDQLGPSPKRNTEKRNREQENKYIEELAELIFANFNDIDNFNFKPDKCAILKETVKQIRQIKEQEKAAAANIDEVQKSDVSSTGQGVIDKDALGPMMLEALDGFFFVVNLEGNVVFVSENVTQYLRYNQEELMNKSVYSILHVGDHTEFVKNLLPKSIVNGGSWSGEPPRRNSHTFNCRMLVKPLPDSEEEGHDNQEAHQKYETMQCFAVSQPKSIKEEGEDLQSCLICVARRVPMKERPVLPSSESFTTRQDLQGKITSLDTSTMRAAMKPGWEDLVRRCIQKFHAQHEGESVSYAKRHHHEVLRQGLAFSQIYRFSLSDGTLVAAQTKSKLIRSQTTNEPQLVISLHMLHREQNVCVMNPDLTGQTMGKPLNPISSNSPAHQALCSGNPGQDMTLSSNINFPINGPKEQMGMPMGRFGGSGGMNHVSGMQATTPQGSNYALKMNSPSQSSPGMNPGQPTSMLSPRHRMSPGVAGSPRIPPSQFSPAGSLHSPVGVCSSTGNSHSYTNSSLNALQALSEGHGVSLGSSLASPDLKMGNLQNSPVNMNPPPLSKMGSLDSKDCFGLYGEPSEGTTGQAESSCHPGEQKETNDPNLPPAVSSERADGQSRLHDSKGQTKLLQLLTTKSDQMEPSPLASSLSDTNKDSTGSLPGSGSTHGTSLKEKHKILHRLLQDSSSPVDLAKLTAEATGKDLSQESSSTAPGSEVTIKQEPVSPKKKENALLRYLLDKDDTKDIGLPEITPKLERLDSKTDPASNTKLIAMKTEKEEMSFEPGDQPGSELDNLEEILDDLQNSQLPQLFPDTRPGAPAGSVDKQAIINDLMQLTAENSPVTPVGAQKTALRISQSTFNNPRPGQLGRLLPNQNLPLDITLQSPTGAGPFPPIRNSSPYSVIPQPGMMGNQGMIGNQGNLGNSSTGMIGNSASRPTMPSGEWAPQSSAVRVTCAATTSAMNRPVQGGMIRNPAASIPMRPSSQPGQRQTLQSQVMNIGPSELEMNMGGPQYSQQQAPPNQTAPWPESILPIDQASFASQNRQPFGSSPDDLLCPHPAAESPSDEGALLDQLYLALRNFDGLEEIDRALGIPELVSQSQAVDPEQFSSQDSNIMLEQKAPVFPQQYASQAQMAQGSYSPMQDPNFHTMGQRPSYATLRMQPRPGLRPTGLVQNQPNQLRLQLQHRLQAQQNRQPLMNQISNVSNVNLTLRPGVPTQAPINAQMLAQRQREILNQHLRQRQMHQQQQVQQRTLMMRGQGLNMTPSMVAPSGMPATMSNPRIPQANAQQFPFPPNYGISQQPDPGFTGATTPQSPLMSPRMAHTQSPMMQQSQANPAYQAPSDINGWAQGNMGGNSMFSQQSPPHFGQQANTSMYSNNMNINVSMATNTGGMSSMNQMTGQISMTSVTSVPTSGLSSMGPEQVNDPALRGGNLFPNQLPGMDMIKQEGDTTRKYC
Sequence of Peroxisome proliferator-activated receptor gamma/Nuclear receptor coactivator 3 (P37231 whole entry): as the sequence (P37231 whole entry) above
Sequence of Peroxisome proliferator-activated receptor gamma/Nuclear receptor coactivator 3 (Q9Y6Q9 whole entry, further chain): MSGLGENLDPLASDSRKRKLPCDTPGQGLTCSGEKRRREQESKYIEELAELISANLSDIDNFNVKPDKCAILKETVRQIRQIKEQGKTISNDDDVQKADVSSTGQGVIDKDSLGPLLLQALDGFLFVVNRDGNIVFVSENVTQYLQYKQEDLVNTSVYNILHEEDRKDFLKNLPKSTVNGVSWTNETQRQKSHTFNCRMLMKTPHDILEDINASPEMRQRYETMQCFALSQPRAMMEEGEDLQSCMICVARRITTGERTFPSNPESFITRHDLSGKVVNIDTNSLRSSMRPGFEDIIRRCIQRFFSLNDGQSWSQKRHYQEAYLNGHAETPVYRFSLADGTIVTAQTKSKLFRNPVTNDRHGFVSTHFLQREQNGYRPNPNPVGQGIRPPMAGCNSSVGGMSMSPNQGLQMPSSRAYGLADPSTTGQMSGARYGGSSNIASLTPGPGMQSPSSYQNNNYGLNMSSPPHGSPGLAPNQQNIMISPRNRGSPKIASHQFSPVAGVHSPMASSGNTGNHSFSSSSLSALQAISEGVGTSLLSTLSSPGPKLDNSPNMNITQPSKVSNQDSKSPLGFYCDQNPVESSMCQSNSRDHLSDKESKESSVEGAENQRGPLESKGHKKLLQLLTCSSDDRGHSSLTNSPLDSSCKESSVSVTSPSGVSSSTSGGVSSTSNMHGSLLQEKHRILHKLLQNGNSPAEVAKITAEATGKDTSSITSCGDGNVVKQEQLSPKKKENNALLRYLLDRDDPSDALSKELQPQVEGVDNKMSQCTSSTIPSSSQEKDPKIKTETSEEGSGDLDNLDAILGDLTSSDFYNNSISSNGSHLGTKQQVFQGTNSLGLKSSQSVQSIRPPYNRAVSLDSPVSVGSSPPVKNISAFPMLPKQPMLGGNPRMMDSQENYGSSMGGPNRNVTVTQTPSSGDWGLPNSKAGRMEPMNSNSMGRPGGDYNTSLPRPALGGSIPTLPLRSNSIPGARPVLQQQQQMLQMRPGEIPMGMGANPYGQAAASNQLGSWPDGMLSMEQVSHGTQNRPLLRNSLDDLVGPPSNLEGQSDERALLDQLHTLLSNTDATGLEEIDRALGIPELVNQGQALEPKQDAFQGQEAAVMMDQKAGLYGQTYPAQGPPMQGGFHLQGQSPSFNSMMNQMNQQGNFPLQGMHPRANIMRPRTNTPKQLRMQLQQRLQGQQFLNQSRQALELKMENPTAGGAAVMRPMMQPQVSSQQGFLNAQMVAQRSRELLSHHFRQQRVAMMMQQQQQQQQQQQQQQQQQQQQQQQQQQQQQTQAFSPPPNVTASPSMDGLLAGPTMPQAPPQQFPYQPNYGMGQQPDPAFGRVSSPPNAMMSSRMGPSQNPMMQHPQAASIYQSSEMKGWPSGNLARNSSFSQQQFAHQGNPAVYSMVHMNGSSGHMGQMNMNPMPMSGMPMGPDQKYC
Sequence of Kallikrein-7 (P49862 whole entry): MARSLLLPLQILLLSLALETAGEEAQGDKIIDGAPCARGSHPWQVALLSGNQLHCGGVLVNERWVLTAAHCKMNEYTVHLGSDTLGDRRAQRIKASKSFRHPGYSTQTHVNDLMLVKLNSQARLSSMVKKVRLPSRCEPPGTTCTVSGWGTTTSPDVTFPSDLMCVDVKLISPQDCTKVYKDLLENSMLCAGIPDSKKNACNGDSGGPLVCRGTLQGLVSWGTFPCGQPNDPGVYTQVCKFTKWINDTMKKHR
Sequence of Cytochrome P450 2C19 (P33261 whole entry): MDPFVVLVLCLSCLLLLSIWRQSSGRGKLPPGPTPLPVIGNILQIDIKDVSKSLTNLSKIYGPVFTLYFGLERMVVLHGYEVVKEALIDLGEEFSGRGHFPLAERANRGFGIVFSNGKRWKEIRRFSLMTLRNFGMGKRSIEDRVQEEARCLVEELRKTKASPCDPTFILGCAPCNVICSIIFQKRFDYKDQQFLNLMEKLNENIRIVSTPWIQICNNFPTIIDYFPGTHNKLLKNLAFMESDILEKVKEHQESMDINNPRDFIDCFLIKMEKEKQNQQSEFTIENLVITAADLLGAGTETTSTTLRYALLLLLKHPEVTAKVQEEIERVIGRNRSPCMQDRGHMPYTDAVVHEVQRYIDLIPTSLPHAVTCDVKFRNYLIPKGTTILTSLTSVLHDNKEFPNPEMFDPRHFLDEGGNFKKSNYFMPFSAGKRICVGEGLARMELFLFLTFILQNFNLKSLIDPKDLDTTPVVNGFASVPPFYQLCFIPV

For `COc1ccc(OC(=O)c2sc3ccccc3c2Cl)cc1`, the IC50 (NADPH oxidase 1) was > 17 µM (not active).

With `COc1ccc(-c2csc(N3CCSCC3)n2)cc1` the EC50 [1] was 0.887 µM (active), the EC50 [2] was 1.64 µM (active) and the EC50 [3] was 3.17 µM (active). For the same compound, the EC50 (H4) was 0.112 µM (active), the EC50 [4] was 0.375 µM (active) and the EC50 [5] was 0.579 µM (active).

For `O=C(Oc1cccc(-n2cnnn2)c1)c1sc2ccccc2c1Cl`, the IC50 (NADPH oxidase 1) was > 17 µM (not active).

In the case of `COc1ccccc1C1C=C(c2ccc(C)cc2)Nc2nnnn21` (stereo unspecified), the EC50 (Kallikrein-7) was 23.5 µM (inactive) and the IC50 [6] was > 100 µM (active).

With `O=C(Nc1nc2ccc([N+](=O)[O-])cc2s1)c1ccco1` the IC50 [7] was > 109 µM (inactive) and the IC50 [8] was > 83.2 µM (inactive).

With `Cc1ccccc1-c1nc(-c2ccccc2)c(-c2ccccc2)[nH]1` the IC50 (NADPH oxidase 1) was > 17 µM (not active).

With `COc1cccc(N2CCN(S(=O)(=O)c3ccc4[nH]c(-c5ccccc5)nc4c3)CC2)c1` the EC50 [9] was 29.8 µM (active), the EC50 [10] was > 120 µM (not active) and the EC50 [11] was > 120 µM (not active). The IC50 [7] was > 109 µM (inactive) and the IC50 [8] was > 83.3 µM (inactive).

In the case of `Cc1cc(C)cc(Oc2coc3cc(OC(=O)c4cccs4)ccc3c2=O)c1`, the AC50 (Cytochrome P450 2C19) was 2.82 µM (inconclusive), the AC50 [12] was 21.2 µM (active) and the EC50 (Protein RecA) was 18.8 µM (active). The EC50 (Kallikrein-7) was 66.8 µM (inactive).

In the case of `C[C@@H]1CN([C@H](C)CO)C(=O)c2cc(C#CCc3ccccc3)cnc2O[C@H]1CN(C)C(=O)C1CCC1`, the AC50 [13] was 2.1 µM (active), the AC50 [14] was 2.18 µM (active) and the AC50 [15] was 1.88 µM (active). For the same compound, the AC50 [16] was 1.54 µM (active).

For `Cc1cc(/C=C2/C(=O)N(C)C(=S)N2C)c(C)n1C1CC1`, the CC50 [17] was 40.7 µM (active), the EC50 [18] was > 79.4 µM (not active) and the EC50 [1] was 0.297 µM (active). The EC50 [19] was > 79.4 µM (not active), the EC50 [3] was < 0.1 µM (inconclusive) and the EC50 [20] was > 79.4 µM (not active). For the same compound, the EC50 (H4) was > 120 µM (not active), the EC50 [4] was 0.337 µM (active) and the EC50 [5] was 0.343 µM (active).

For `NNC(=O)c1cnn(-c2ccccc2)c1-n1cccc1`, the EC50 [18] was > 79.4 µM (not active), the EC50 [19] was > 79.4 µM (not active) and the EC50 [20] was > 79.4 µM (not active).

In the case of `CCOC(=O)c1c(NC(=O)C(C)Sc2cn(C)c3ccccc23)sc2c1CCC2` (stereo unspecified), the EC50 [18] was 29.5 µM (not active), the EC50 [19] was 29.2 µM (not active) and the EC50 [20] was 32.3 µM (not active).

With `CCSc1n[nH]c2nc3nc4c(C)cccc4c-3nn12` the IC50 [7] was > 109 µM (inactive) and the IC50 [8] was > 83.3 µM (inactive).

With `N#C/C(=C/c1cn(CC(=O)O)c2ccccc12)c1ccc(F)cc1` the IC50 (Leucine aminopeptidase) was 21.2 µM (active).

With `CCOC(=O)N1CCN(C(=O)C2CCCN(S(=O)(=O)c3ccc(C)cc3)C2)CC1` (stereo unspecified) the IC50 [6] was > 100 µM (active).

With `O=C(O)c1ccc(/C=N/Nc2ccc(F)cc2F)cc1` the IC50 (Leucine aminopeptidase) was 99.4 µM (active).
